Laboratory results: ChEMBL document CHEMBL4507305, “Data for DCP probe TP-024” (2021)

Assays:
[1] = system: Tyrosine-protein kinase ABL1 (Homo sapiens), P00519 [T315I]; settings: Compound concentration 1000.0 nM
[2] = target: Activin receptor type-2B (Homo sapiens) (UniProt Q13705); settings: Compound concentration 1000.0 nM
[3] = target: Aurora kinase C (Homo sapiens) (UniProt Q9UQB9); settings: Compound concentration 1000.0 nM
[4] = target: Calcium/calmodulin-dependent protein kinase type 1B (Homo sapiens) (UniProt Q6P2M8); settings: Compound concentration 1000.0 nM
[5] = target: Calcium/calmodulin-dependent protein kinase type II subunit gamma (Homo sapiens) (UniProt Q13555); settings: Compound concentration 1000.0 nM
[6] = target: Calcium/calmodulin-dependent protein kinase type IV (Homo sapiens) (UniProt Q16566); settings: Compound concentration 1000.0 nM
Calcium/calmodulin-dependent protein kinase type IV (Homo sapiens), sequence (Q16566 whole entry): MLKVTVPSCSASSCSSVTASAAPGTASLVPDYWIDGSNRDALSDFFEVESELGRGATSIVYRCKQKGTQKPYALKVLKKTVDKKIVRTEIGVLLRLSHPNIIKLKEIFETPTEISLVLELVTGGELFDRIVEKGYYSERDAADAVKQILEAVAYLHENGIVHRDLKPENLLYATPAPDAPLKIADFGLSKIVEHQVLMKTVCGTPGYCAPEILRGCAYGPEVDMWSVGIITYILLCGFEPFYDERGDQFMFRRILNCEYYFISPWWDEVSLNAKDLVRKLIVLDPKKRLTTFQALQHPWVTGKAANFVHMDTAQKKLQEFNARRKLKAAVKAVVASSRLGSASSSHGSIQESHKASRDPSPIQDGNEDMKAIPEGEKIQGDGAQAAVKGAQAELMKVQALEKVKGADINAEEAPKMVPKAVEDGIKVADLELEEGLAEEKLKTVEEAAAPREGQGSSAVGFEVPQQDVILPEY

[7] = target: Death-associated protein kinase 2 (Homo sapiens) (UniProt Q9UIK4); settings: Compound concentration 1000.0 nM
[8] = target: Serine/threonine-protein kinase DCLK2 (Homo sapiens) (UniProt Q8N568); settings: Compound concentration 1000.0 nM
[9] = target: Mitogen-activated protein kinase 15 (Homo sapiens) (UniProt Q8TD08); settings: Compound concentration 1000.0 nM
Mitogen-activated protein kinase 15 (Homo sapiens), sequence (Q8TD08 whole entry): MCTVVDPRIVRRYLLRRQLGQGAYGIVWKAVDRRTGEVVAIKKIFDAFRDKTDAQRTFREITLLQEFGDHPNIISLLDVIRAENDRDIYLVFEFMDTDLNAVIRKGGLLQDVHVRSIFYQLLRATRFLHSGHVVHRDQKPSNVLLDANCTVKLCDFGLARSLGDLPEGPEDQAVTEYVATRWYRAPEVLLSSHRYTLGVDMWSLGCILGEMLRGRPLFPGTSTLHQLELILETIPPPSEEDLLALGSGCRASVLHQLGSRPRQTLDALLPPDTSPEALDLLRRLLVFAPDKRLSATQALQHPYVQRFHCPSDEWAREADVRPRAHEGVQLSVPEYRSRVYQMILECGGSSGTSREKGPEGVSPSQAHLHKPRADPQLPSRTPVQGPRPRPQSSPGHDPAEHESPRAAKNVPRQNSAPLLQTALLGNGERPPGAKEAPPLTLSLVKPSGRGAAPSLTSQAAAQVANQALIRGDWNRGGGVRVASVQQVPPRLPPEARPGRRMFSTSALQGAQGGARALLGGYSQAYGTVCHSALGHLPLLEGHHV

[10] = target: Vascular endothelial growth factor receptor 1 (Homo sapiens) (UniProt P17948); settings: Compound concentration 1000.0 nM
[11] = system: Receptor-type tyrosine-protein kinase FLT3 (Homo sapiens), P36888 [N841I]; settings: Compound concentration 1000.0 nM
[12] = target: Interleukin-1 receptor-associated kinase 3 (Homo sapiens) (UniProt Q9Y616); settings: Compound concentration 1000.0 nM
[13] = target: Tyrosine-protein kinase JAK1 (Homo sapiens) (UniProt P23458); settings: Compound concentration 1000.0 nM
[14] = system: Mast/stem cell growth factor receptor Kit (Homo sapiens), P10721 [V559D,T670I]; settings: Compound concentration 1000.0 nM
[15] = target: Leucine-rich repeat serine/threonine-protein kinase 2 (Homo sapiens) (UniProt Q5S007); settings: Compound concentration 1000.0 nM
Leucine-rich repeat serine/threonine-protein kinase 2 (Homo sapiens), sequence (Q5S007 whole entry): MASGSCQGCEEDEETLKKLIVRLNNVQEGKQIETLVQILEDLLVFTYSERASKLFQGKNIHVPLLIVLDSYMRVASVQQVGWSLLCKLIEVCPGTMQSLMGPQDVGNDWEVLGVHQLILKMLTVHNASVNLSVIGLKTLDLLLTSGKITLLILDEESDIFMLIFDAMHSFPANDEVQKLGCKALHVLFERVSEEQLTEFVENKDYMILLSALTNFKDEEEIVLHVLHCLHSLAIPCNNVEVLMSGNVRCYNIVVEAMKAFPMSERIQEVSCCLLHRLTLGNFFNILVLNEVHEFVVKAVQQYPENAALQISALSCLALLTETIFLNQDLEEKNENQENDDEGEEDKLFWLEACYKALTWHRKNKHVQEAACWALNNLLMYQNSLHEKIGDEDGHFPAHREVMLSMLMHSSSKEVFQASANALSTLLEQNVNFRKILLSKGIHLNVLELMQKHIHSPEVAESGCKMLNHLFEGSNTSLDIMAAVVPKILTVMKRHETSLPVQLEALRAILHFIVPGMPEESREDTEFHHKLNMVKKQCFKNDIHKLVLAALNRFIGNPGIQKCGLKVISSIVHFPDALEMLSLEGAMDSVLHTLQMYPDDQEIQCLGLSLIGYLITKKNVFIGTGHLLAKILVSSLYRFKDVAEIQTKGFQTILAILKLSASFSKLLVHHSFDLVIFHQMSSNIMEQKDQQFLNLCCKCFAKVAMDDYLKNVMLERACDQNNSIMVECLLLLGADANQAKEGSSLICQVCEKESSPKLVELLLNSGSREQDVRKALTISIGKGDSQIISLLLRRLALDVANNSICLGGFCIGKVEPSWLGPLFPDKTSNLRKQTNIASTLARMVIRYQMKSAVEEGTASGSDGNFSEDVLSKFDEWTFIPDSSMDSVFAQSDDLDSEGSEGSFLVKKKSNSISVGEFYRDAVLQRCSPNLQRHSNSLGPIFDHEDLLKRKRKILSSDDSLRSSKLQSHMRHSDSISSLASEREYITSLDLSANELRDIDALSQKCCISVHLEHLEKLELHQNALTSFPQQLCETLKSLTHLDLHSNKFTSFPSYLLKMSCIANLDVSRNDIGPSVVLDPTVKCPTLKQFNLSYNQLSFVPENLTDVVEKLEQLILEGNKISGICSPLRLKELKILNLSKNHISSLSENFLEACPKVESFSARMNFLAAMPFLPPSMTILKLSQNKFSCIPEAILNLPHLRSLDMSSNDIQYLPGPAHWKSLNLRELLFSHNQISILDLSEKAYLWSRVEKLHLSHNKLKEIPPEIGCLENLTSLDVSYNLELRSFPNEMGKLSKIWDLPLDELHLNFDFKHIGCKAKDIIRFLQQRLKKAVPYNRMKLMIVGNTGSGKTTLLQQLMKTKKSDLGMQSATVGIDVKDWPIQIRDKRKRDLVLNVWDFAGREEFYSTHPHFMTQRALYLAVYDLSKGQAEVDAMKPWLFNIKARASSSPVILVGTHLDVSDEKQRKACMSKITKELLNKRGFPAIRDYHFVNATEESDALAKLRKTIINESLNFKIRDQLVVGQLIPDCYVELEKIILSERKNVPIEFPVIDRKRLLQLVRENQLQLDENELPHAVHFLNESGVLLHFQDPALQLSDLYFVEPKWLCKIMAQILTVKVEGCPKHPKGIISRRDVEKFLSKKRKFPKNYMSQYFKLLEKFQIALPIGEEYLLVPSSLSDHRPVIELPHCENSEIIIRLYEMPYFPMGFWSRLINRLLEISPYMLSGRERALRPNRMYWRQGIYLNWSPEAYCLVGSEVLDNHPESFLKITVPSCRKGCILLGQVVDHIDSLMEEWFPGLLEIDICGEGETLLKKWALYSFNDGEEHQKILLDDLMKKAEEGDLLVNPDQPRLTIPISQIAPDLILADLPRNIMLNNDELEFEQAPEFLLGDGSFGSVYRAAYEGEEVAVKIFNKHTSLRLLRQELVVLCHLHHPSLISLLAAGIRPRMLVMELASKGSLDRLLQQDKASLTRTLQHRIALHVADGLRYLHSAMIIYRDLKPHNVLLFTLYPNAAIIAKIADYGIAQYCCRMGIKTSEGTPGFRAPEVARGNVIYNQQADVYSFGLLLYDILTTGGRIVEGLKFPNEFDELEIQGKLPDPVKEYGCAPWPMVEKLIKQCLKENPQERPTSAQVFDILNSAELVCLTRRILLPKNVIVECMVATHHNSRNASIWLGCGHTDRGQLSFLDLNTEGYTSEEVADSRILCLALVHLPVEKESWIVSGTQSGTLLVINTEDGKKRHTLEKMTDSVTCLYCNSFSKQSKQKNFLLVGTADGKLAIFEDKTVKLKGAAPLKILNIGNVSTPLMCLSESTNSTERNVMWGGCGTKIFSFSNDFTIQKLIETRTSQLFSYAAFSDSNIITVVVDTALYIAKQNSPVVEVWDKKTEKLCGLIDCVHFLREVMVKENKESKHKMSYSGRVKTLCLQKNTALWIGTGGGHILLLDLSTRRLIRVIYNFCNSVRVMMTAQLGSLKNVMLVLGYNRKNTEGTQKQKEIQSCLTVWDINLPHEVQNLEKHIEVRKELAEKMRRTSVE

[16] = target: Leukocyte tyrosine kinase receptor (Homo sapiens) (UniProt P29376); settings: Compound concentration 1000.0 nM
Leukocyte tyrosine kinase receptor (Homo sapiens), sequence (P29376 whole entry): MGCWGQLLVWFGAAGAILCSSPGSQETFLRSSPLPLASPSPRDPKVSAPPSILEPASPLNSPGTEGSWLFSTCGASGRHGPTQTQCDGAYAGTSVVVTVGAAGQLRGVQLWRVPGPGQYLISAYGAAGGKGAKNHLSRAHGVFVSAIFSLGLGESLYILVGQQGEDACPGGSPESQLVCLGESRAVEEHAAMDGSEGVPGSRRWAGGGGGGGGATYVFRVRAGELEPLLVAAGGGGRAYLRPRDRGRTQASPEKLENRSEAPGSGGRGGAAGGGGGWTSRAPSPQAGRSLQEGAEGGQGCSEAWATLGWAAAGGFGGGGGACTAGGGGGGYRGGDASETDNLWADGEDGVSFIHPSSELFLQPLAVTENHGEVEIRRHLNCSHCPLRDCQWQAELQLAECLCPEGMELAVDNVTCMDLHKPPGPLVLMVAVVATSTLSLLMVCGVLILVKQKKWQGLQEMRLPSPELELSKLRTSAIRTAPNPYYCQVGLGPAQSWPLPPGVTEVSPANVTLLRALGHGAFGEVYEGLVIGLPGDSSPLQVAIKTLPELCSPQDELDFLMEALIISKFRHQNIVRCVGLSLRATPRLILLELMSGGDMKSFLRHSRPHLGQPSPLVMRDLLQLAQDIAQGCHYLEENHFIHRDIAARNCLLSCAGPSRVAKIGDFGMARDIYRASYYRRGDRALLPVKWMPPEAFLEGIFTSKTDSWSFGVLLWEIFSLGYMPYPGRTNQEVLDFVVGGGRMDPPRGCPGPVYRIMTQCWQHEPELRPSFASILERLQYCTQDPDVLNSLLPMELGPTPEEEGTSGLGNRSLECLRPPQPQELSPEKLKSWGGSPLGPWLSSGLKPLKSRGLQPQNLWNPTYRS

[17] = target: Tyrosine-protein kinase Lyn (Homo sapiens) (UniProt P07948); settings: Compound concentration 1000.0 nM
Tyrosine-protein kinase Lyn (Homo sapiens), sequence (P07948 2-512 limits assumed): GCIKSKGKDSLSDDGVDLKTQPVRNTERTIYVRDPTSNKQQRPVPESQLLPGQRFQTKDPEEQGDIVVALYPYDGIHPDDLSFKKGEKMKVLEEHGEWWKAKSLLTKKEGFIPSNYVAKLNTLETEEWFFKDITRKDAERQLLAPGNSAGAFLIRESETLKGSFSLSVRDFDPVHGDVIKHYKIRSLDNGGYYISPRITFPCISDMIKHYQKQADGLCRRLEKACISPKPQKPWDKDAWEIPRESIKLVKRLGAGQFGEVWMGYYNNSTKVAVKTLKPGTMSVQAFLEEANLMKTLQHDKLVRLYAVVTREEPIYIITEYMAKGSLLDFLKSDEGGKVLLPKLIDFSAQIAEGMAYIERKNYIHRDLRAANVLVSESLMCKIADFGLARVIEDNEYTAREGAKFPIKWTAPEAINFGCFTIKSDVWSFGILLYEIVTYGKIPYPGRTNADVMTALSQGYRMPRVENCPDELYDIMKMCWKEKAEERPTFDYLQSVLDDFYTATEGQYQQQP

[18] = target: Mitogen-activated protein kinase kinase kinase kinase 4 (Homo sapiens) (UniProt O95819); settings: Compound concentration 1000.0 nM
[19] = target: MAP kinase-activated protein kinase 5 (Homo sapiens) (UniProt Q8IW41); settings: Compound concentration 1000.0 nM
[20] = target: Serine/threonine-protein kinase MARK2 (Homo sapiens) (UniProt Q7KZI7); settings: Compound concentration 1000.0 nM
[21] = target: Microtubule-associated serine/threonine-protein kinase 1 (Homo sapiens) (UniProt Q9Y2H9); settings: Compound concentration 1000.0 nM
[22] = target: Serine/threonine-protein kinase 38 (Homo sapiens) (UniProt Q15208); settings: Compound concentration 1000.0 nM
[23] = target: Serine/threonine-protein kinase Nek11 (Homo sapiens) (UniProt Q8NG66); settings: Compound concentration 1000.0 nM
[24] = target: Serine/threonine-protein kinase Nek2 (Homo sapiens) (UniProt P51955); settings: Compound concentration 1000.0 nM
[25] = target: Serine/threonine-protein kinase NIM1 (Homo sapiens) (UniProt Q8IY84); settings: Compound concentration 1000.0 nM
[26] = target: Serine/threonine-protein kinase NLK (Homo sapiens) (UniProt Q9UBE8); settings: Compound concentration 1000.0 nM
[27] = target: Mitogen-activated protein kinase 13 (Homo sapiens) (UniProt O15264); settings: Compound concentration 1000.0 nM
[28] = target: Phosphatidylinositol 4-kinase beta (Homo sapiens) (UniProt Q9UBF8); settings: Compound concentration 1000.0 nM
[29] = target: Serine/threonine-protein kinase pim-1 (Homo sapiens) (UniProt P11309); settings: Compound concentration 1000.0 nM
[30] = target: Phosphatidylinositol 5-phosphate 4-kinase type-2 gamma (Homo sapiens) (UniProt Q8TBX8); settings: Compound concentration 1000.0 nM
[31] = target: cAMP-dependent protein kinase catalytic subunit alpha (Homo sapiens) (UniProt P17612); settings: Compound concentration 1000.0 nM
[32] = target: Serine/threonine-protein kinase PLK1 (Homo sapiens) (UniProt P53350); settings: Compound concentration 1000.0 nM
[33] = target: Serine/threonine-protein kinase PLK4 (Homo sapiens) (UniProt O00444); settings: Compound concentration 1000.0 nM
[34] = target: Serine/threonine-protein kinase D1 (Homo sapiens) (UniProt Q15139); settings: Compound concentration 1000.0 nM
[35] = system: Proto-oncogene tyrosine-protein kinase receptor Ret (Homo sapiens), P07949 [V804M]; settings: Compound concentration 1000.0 nM
[36] = target: Ribosomal protein S6 kinase alpha-6 (Homo sapiens) (UniProt Q9UK32); settings: Compound concentration 1000.0 nM
[37] = target: Tyrosine-protein kinase Srms (Homo sapiens) (UniProt Q9H3Y6); settings: Compound concentration 1000.0 nM
[38] = target: Serine/threonine-protein kinase 36 (Homo sapiens) (UniProt Q9NRP7); settings: Compound concentration 1000.0 nM
[39] = target: TGF-beta receptor type-2 (Homo sapiens) (UniProt P37173); settings: Compound concentration 1000.0 nM
[40] = target: NT-3 growth factor receptor (Homo sapiens) (UniProt Q16288); settings: Compound concentration 1000.0 nM
[41] = target: Serine/threonine-protein kinase VRK2 (Homo sapiens) (UniProt Q86Y07); settings: Compound concentration 1000.0 nM
[42] = target: 5-hydroxytryptamine receptor 1B (Homo sapiens) (UniProt P28222); settings: Compound concentration 10.0 uM
[43] = target: Sodium-dependent noradrenaline transporter (Homo sapiens) (UniProt P23975); settings: Compound concentration 10.0 uM
[44] = target: Alpha-1B adrenergic receptor (Homo sapiens) (UniProt P35368); settings: Compound concentration 10.0 uM
[45] = target: Sigma intracellular receptor 2 (Homo sapiens) (UniProt Q5BJF2); settings: Compound concentration 10.0 uM
Sigma intracellular receptor 2 (Homo sapiens), sequence (Q5BJF2 whole entry): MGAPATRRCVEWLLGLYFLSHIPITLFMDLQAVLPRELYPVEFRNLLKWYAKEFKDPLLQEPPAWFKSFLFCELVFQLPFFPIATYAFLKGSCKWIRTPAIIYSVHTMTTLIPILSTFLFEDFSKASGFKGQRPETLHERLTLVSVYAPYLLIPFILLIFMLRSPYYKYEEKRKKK

`Cc1nc(Cc2cccc(C(F)(F)F)c2)sc1-c1ccc(C(N)=O)nc1` [TP-024n] gave a residual activity [1] of 100%, a residual activity [2] of 86% and a residual activity [3] of 100%. The residual activity [4] was 100%, the residual activity [5] was 93% and the residual activity [6] was 100%. For the same molecule, the residual activity [7] was 89%, the residual activity [8] was 100% and the residual activity [9] was 100%. It also gave a residual activity [10] of 100%, a residual activity [11] of 86% and a residual activity [12] of 100%. For the same molecule, the residual activity [13] was 86%, the residual activity [14] was 91% and the residual activity [15] was 92%. The residual activity [16] was 100%, the residual activity [17] was 95% and the residual activity [18] was 80%. The residual activity [19] was 100%, the residual activity [20] was 69% and the residual activity [21] was 100%. For the same molecule, the residual activity [22] was 81%, the residual activity [23] was 100% and the residual activity [24] was 100%. The residual activity [25] was 100%, the residual activity [26] was 100% and the residual activity [27] was 99%. It also gave a residual activity [28] of 91%, a residual activity [29] of 96% and a residual activity [30] of 0.3%. For the same molecule, the residual activity [31] was 75%, the residual activity [32] was 100% and the residual activity [33] was 90%. For the same molecule, the residual activity [34] was 93%, the residual activity [35] was 88% and the residual activity [36] was 91%. It also gave a residual activity [37] of 77%, a residual activity [38] of 100% and a residual activity [39] of 100%. For the same molecule, the residual activity [40] was 69%, the residual activity [41] was 100% and the inhibition [42] was 7.99%. The inhibition [43] was -8.77%, the inhibition [44] was 24.6% and the inhibition [45] was -8.52%.

Work on `Cc1cc(-n2nc(Cc3cc(F)cc(C(F)(F)F)c3)nc2C)ccc1C(N)=O` [TP-024] yielded a residual activity [1] of 100%, a residual activity [2] of 100% and a residual activity [3] of 100%. The residual activity [4] was 100%, the residual activity [5] was 100% and the residual activity [6] was 100%. For the same molecule, the residual activity [7] was 95%, the residual activity [8] was 100% and the residual activity [9] was 95%. It also gave a residual activity [10] of 100%, a residual activity [11] of 99% and a residual activity [12] of 100%. The residual activity [13] was 100%, the residual activity [14] was 100% and the residual activity [15] was 99%. The residual activity [16] was 100%, the residual activity [17] was 100% and the residual activity [18] was 100%. The residual activity [19] was 100%, the residual activity [20] was 89% and the residual activity [21] was 100%. It also gave a residual activity [22] of 83%, a residual activity [23] of 100% and a residual activity [24] of 100%. It also gave a residual activity [25] of 100%, a residual activity [26] of 100% and a residual activity [27] of 100%. It also gave a residual activity [28] of 100%, a residual activity [29] of 100% and a residual activity [30] of 100%. For the same molecule, the residual activity [31] was 100%, the residual activity [32] was 100% and the residual activity [33] was 84%. For the same molecule, the residual activity [34] was 92%, the residual activity [35] was 100% and the residual activity [36] was 89%. The residual activity [37] was 98%, the residual activity [38] was 100% and the residual activity [39] was 100%. For the same molecule, the residual activity [40] was 94%, the residual activity [41] was 100% and the inhibition [42] was 13.8%. It also gave an inhibition [43] of -6.7%, an inhibition [44] of 6.84% and an inhibition [45] of -7.3%.
